According to US20230099027A1 (priority 2020, published 2023):

Test system: H1N1 Neth09
Type: cell-based, influenza A virus

PEG8
virucidal result: did not give virucidal results
